One block for each compound: values may come before it.
Assays:
[1] = target: T1, Platelet-derived growth factor receptor alpha (Homo sapiens, UniProt P16234, D842V); assay: Inhibition of PDGFR-alpha D842V mutant (unknown origin) using Tyr 04 peptide as substrate incubated for 1 hr in presence of ATP by FRET-based Z'-Lyte assay
[2] = target: T1, Platelet-derived growth factor receptor alpha; assay: Inhibition of PDGFR-alpha D842V mutant (unknown origin) expressed in mouse BaF3 cells; format: cell-based
[3] = cells; details: Mus musculus, BaF3, 72 h
[4] = cells; details: Mus musculus, BaF3, 72 h; remark: listed apart in the source
[5] = Inhibition of cell viability of HEK293T cells incubated for 72 hrs by CCK8 assay; format: toxicity, cell-based, HEK-293T; details: human
[6] = Induction of cell cycle arrest in mouse BaF3 cells expressing PDGFR-alpha D842V mutant (unknown origin) assessed as accumulation at S phase at 1000 nM incubated for 24 hrs by PI staining based flow cytometry (reference value: 12.00 %); format: functional
[7] = Induction of apoptosis in mouse BaF3 cells expressing PDGFR-alpha D842V mutant (unknown origin) assessed as viable cells at 200 nM incubated for 48 hrs by V-PE/7-AAD staining based flow cytometry (reference value: 92.28 %); format: functional; details: read-out: Activity
[8] = Induction of apoptosis in mouse BaF3 cells expressing PDGFR-alpha D842V mutant (unknown origin) assessed as late apoptotic cells at 200 nM incubated for 48 hrs by V-PE/7-AAD staining based flow cytometry (reference value: 2.77 %); format: functional
[9] = Induction of apoptosis in mouse BaF3 cells expressing PDGFR-alpha D842V mutant (unknown origin) assessed as viable cells at 1000 nM incubated for 48 hrs by V-PE/7-AAD staining based flow cytometry (reference value: 92.28 %); format: functional; details: read-out: Activity
[10] = Induction of apoptosis in mouse BaF3 cells expressing PDGFR-alpha D842V mutant (unknown origin) assessed as early apoptotic cells at 1000 nM incubated for 48 hrs by V-PE/7-AAD staining based flow cytometry (reference value: 4.20 %); format: functional
[11] = Induction of cell cycle arrest in mouse BaF3 cells expressing PDGFR-alpha D842V mutant (unknown origin) assessed as accumulation at S phase at 40 nM incubated for 24 hrs by PI staining based flow cytometry (reference value: 12.00 %); format: functional
[12] = Induction of cell cycle arrest in mouse BaF3 cells expressing PDGFR-alpha D842V mutant (unknown origin) assessed as accumulation at G2/M phase at 1000 nM incubated for 24 hrs by PI staining based flow cytometry (reference value: 34.85 %); format: functional
[13] = Induction of cell cycle arrest in mouse BaF3 cells expressing PDGFR-alpha D842V mutant (unknown origin) assessed as accumulation at S phase at 200 nM incubated for 24 hrs by PI staining based flow cytometry (reference value: 12.00 %); format: functional
[14] = Induction of apoptosis in mouse BaF3 cells expressing PDGFR-alpha D842V mutant (unknown origin) assessed as late apoptotic cells at 1000 nM incubated for 48 hrs by V-PE/7-AAD staining based flow cytometry (reference value: 2.77 %); format: functional
[15] = Induction of apoptosis in mouse BaF3 cells expressing PDGFR-alpha D842V mutant (unknown origin) assessed as necrotic cells at 200 nM incubated for 48 hrs by V-PE/7-AAD staining based flow cytometry (reference value: 0.75 %); format: functional
[16] = Induction of cell cycle arrest in mouse BaF3 cells expressing PDGFR-alpha D842V mutant (unknown origin) assessed as accumulation at G0/G1 phase at 200 nM incubated for 24 hrs by PI staining based flow cytometry (reference value: 51.77 %); format: functional
[17] = Induction of cell cycle arrest in mouse BaF3 cells expressing PDGFR-alpha D842V mutant (unknown origin) assessed as accumulation at G2/M phase at 40 nM incubated for 24 hrs by PI staining based flow cytometry (reference value: 34.85 %); format: functional
[18] = Induction of apoptosis in mouse BaF3 cells expressing PDGFR-alpha D842V mutant (unknown origin) assessed as necrotic cells at 40 nM incubated for 48 hrs by V-PE/7-AAD staining based flow cytometry (reference value: 0.75 %); format: functional
[19] = Induction of apoptosis in mouse BaF3 cells expressing PDGFR-alpha D842V mutant (unknown origin) assessed as late apoptotic cells at 40 nM incubated for 48 hrs by V-PE/7-AAD staining based flow cytometry (reference value: 2.77 %); format: functional
[20] = Induction of apoptosis in mouse BaF3 cells expressing PDGFR-alpha D842V mutant (unknown origin) assessed as early apoptotic cells at 200 nM incubated for 48 hrs by V-PE/7-AAD staining based flow cytometry (reference value: 4.20 %); format: functional
[21] = Induction of cell cycle arrest in mouse BaF3 cells expressing PDGFR-alpha D842V mutant (unknown origin) assessed as accumulation at G0/G1 phase at 40 nM incubated for 24 hrs by PI staining based flow cytometry (reference value: 51.77 %); format: functional
[22] = Induction of apoptosis in mouse BaF3 cells expressing PDGFR-alpha D842V mutant (unknown origin) assessed as viable cells at 40 nM incubated for 48 hrs by V-PE/7-AAD staining based flow cytometry (reference value: 92.28 %); format: functional; details: read-out: Activity
[23] = test system: BaF3; details: Mus musculus, dose <= 1000.0 nM
[24] = Induction of apoptosis in mouse BaF3 cells expressing PDGFR-alpha D842V mutant (unknown origin) assessed as early apoptotic cells at 40 nM incubated for 48 hrs by V-PE/7-AAD staining based flow cytometry (reference value: 4.20 %); format: functional
[25] = Induction of cell cycle arrest in mouse BaF3 cells expressing PDGFR-alpha D842V mutant (unknown origin) assessed as accumulation at G2/M phase at 200 nM incubated for 24 hrs by PI staining based flow cytometry (reference value: 34.85 %); format: functional
[26] = Induction of cell cycle arrest in mouse BaF3 cells expressing PDGFR-alpha D842V mutant (unknown origin) assessed as accumulation at G0/G1 phase at 1000 nM incubated for 24 hrs by PI staining based flow cytometry (reference value: 51.77 %); format: functional
[27] = Induction of apoptosis in mouse BaF3 cells expressing PDGFR-alpha D842V mutant (unknown origin) assessed as necrotic cells at 1000 nM incubated for 48 hrs by V-PE/7-AAD staining based flow cytometry (reference value: 0.75 %); format: functional

T1 sequence (P16234 24-1089 D842V limits assumed): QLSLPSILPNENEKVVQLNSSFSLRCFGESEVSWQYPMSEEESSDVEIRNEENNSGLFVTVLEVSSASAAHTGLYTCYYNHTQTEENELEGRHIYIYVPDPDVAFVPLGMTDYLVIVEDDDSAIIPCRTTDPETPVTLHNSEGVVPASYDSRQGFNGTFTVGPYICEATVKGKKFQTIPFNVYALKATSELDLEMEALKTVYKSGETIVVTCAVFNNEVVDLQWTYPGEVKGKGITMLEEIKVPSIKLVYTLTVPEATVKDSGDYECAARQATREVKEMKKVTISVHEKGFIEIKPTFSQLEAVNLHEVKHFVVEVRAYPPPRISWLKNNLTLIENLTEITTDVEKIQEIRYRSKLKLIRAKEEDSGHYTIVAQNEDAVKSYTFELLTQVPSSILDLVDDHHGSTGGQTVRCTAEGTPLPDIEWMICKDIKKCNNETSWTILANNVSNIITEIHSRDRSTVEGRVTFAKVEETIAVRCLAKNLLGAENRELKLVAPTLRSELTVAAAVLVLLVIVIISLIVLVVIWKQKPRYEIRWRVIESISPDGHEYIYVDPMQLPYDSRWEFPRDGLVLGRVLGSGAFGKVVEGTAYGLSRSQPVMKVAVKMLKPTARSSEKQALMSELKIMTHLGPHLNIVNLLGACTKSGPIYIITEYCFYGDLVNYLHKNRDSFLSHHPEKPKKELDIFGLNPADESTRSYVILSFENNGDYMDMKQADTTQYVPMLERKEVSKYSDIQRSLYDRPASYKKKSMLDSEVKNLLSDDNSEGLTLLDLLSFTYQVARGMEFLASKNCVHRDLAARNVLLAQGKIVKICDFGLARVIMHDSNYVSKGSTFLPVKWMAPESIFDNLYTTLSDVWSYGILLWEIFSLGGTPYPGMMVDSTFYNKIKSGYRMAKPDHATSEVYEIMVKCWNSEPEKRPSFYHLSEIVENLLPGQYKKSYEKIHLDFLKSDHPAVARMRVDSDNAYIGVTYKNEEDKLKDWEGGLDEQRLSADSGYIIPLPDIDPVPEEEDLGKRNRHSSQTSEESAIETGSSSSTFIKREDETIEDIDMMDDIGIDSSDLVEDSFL

IC50 [1]: > 10000 nM
IC50 [2]: > 1000 nM
SMILES: Clc1cnc2nc1N1CCC(CC1)NCCCOc1ccc3ncn-2c3c1

IC50 [3]: 407 nM
IC50 [4]: 23.7 nM
SMILES: CC1(COc2ccc3c(c2)ncn3-c2ccc3cccc(N4CCC(N)CC4)c3n2)COC1 [CRENOLANIB]
IC50 at 72 h [5]: 1680 nM

IC50 [3]: 64.1 nM
IC50 [4]: 27.6 nM
SMILES: c1cc2c3nc(ccc3c1)-n1cnc3ccc(cc31)OCCNC1CCN2CC1
Activity [6]: 7.21%
viability at 0.2 µM [7]: 89.4%
Activity [8]: 2.27%
viability at 1 µM [9]: 68.8%
Activity [10]: 24.41%
Activity [11]: 9.94%
Activity [12]: 26.13%
Activity [13]: 7.5%
Activity [14]: 6.67%
Activity [15]: 0.14%
Activity [16]: 60.03%
Activity [17]: 34.25%
Activity [18]: 0.06%
Activity [19]: 2.23%
Activity [20]: 8.22%
Activity [21]: 54.31%
viability at 0.04 µM [22]: 94.5%
inhibition [23]: Not active; Less Pronounced As Compared To Avapritinib
Activity [24]: 3.2%
Activity [25]: 31.42%
Activity [26]: 65.32%
IC50 at 72 h [5]: 1050 nM
Activity [27]: 0.07%

Reference: ChEMBL document CHEMBL6103658, “Designing Macrocyclic Kinase Inhibitors Using Macrocycle Scaffold Hopping with Reinforced Learning (Macro-Hop)” (J Med Chem, 2025)
